Values joined by “and” are separate entries in the source; they are usually repeats but may differ in a detail not shown here. Equal values may be shown once.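 48-hour exposure; five concentrations; linearly interpolated endpoints. Here, GI50 denotes the concentration required for 50% inhibition of growth. TGI denotes the concentration required for complete inhibition of growth.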
How the values were obtained:
Assay in all cases: NCI-60 cell line screen, 48 h
SK-OV-3 ovarian = test system: SK-OV-3 ovarian
NCI-H460 lung = test system: NCI-H460 lung
SN12C renal = test system: SN12C renal
EKVX NSCLC = test system: EKVX NSCLC
RXF 393 renal = test system: RXF 393 renal
786-0 renal = test system: 786-0 renal
SK-MEL-28 melanoma = test system: SK-MEL-28 melanoma
NCI-H23 lung = test system: NCI-H23 lung
SF-539 CNS = test system: SF-539 CNS
HOP-62 NSCLC = test system: HOP-62 NSCLC

Row | Structure (SMILES) | TGI (SK-OV-3 ovarian) [µM] | TGI (NCI-H460 lung) [µM] | GI50 (SN12C renal) [µM] | TGI (SN12C renal) [µM] | GI50 (EKVX NSCLC) [µM] | TGI (EKVX NSCLC) [µM] | GI50 (RXF 393 renal) [µM] | TGI (RXF 393 renal) | GI50 (786-0 renal) [µM] | TGI (786-0 renal) [µM] | TGI (SK-MEL-28 melanoma) [µM] | GI50 (NCI-H23 lung) [µM] | TGI (NCI-H23 lung) [µM] | GI50 (SF-539 CNS) [µM] | TGI (SF-539 CNS) [µM] | GI50 (HOP-62 NSCLC) [µM] | TGI (HOP-62 NSCLC) [µM] | GI50 (SK-OV-3 ovarian) [µM] | GI50 (NCI-H460 lung) [µM] | GI50 (SK-MEL-28 melanoma) [µM]
1 | CSc1ccccc1C#C/C=C\C#Cc1ccccc1N1CCCC1=O | > 50 | > 50 | > 26.2 | > 50 | > 10.3 | > 50 | 2.91 | 25.8 µM | > 22 | > 50 | > 50 | > 12.7 | > 50 | > 11.4 | > 50 | > 15.8 | > 50 | – | – | –
2 | O=C(CN1CCN(c2cc3c(cc2F)c(=O)c(C(=O)N/N=C/c2ccccc2O)cn3C2CC2)CC1)N/N=C\c1ccccc1O | > 100 | > 48.7 | 0.694 | > 100 | 1.11 | > 100 | 1.32 | > 100 µM | 1.12 | > 100 | > 100 | 0.801 | > 100 | 0.829 | > 64 | 0.408 | > 100 | 0.763 | 0.367 | 0.657
3 | CC(=O)C(CN(C(C)C)C(C)C)C(c1ccccc1)c1c(O)c2ccccc2oc1=O (stereo not given) | > 100 | > 100 | – | > 100 | – | > 100 | – | > 100 µM | – | > 100 | > 100 | – | > 100 | – | > 100 | – | > 100 | – | – | –
4 | Cc1cc(=O)n2[nH]c(-c3ccc(C(C)(C)C)cc3)cc2n1 | 86 | 38 | 12.3 | > 100 | 3.88 | 59.1 | 4.59 | 28.2 µM | 10.3 | > 100 | > 100 | 4.03 | 80.6 | 9.01 | > 100 | 17.5 | 76.9 | 6.8 | 3.03 | 20.6
5 | O=C(Nc1ccc(F)cc1F)c1cc(I)ccc1O | 4.27 | > 100 | 2.46 | 8.54 | 2.19 | 9.14 | 2.5 | 7 µM | 3.13 | 9.7 | 6.84 | 2.72 | 10.4 | 2.83 | 10.2 | 2.42 | 7.87 | 1.12 | 3.13 | 1.93
6 | COC(=O)Nc1nc2ccc(S(=O)c3ccccc3)cc2[nH]1 (stereo not given) | 12.4 | > 100 | 6.98 | > 100 | 35 | > 100 | 3.28 | 26.7 µM | 5.2 | > 100 | > 100 | 8.79 | > 100 | 4.64 | 58.5 | 3.64 | > 100 | 3.23 | 4.17 | 3.78
7 | Fc1ccc(Nc2ncnc3ccc(-c4cnc5[nH]ccc5c4)cc23)cc1Cl | 32.6 | 4.06 | 1.73 | 4.88 | 0.769 | > 100 | 1.53 | 6.27 µM | 1.57 | 3.27 | > 36.2 | 8.74 | > 100 | 2.3 | 7.65 | 3.54 | 15.6 | 4.62 | 1.83 | 4.13
8 | CC1(C)COC(c2ccc(C(F)(F)F)cc2C(O)c2ccc3ccccc3c2)=N1 (stereo not given) | > 100 | > 10 | > 100 | > 100 | > 100 | > 100 | > 10 | > 10 µM and 44.3 µM | > 100 | > 100 | > 100 | > 10 | > 100 | – | > 100 | > 100 | > 100 | > 100 | – | > 100
9 | O=C(O)c1cc(C(=O)O)cc(N2C(=O)c3ccccc3C2=O)c1 | > 100 | > 100 | – | > 100 | – | > 100 | – | > 100 µM | – | > 100 | > 100 | – | > 100 | – | > 100 | – | > 100 | – | – | –
10 | COc1ccc2nc3cc(Cl)ccc3c(Sc3ccccc3[N+](=O)[O-])c2c1 | > 100 | > 100 | – | 75.7 | – | > 100 | – | 93.2 µM | – | > 100 | > 100 | – | > 100 | – | > 100 | – | > 100 | – | – | –
11 | O=C1C2=C(SCCS2)C(=O)c2ccccc21 | 3.12 | 3.38 | – | 3.39 | – | 2.69 | – | 3.56 µM | – | 3.12 | 3.26 | – | 3.34 | – | 3.09 | – | 2.9 | – | – | –
12 | CC[C@@]12CCCN3CC[C@]4(c5cccc(OC)c5N(C(C)=O)[C@@H]4CC1)[C@H]32 | > 100 | > 100 | – | > 100 | – | > 100 | – | > 100 µM | – | > 100 | > 100 | – | > 100 | – | > 100 | – | > 100 | – | – | –

— PubChem BioAssay (NCI)
